Here are results for four compounds from patent publication US20200079785A1, “MITOMYCIN C PRODRUG LIPOSOME FORMULATIONS AND USES THEREOF” (MALLINCKRODT LLC, priority 2016, published 2020).

Read-outs that look alike come from different tables or passages of the source.

For data set [1], the system named is HT29 colorectal adenocarcinoma cells. Put plainly: In vitro cell kill assay. Type of data set: cell-based. On the procedure:
MCC, MMC prodrugs, and liposomal MMC prodrugs were evaluated in an in vitro cell kill assay. MMC, MMC prodrug, and liposomal MMC prodrug samples were diluted in DPBS as a starting concentration, then serially diluted 1:3 in DPBS (i.e., 70 μL:140 μL). HT29 colorectal adenocarcinoma cells were plated at 100 μL/well in 10% FBS/McCoy's 5a+Pen/Strep media at 5×10^4 cells/mL, based on approximated 24-h doubling time. The plates were incubated at 37° C. overnight to allow the cells to adhere. Next, 10 μL/well treatment dose of MMC, MMC prodrug, or liposomal MMC prodrug was added to the wells, and the plates were incubated at 37° C. […] After a 2-h incubation, the media was removed from the plate and 100 μL/well drug-free media was added before returning to the incubator. After a 24-h incubation, the media was removed from the plate and 100 μL/well drug-free media was added before returning to the incubator. After a 72-h incubation, the media was removed from all of the plates and 100 μL/well drug-free media with 10% Alamar was added to each and returned to the incubator.
Cell viability was measured using WST-1 cell proliferation colorimetric assay or AlamarBlue. 50 mL of 10% WST/McCoy's 5a media was prepared from 5 mL of WST+45 mL of media; 50 mL of 10% Alamar Blue/McCoy's 5a media was prepared from 5 mL of Alamar Blue+45 mL of media. 10% WST/McCoy's 5a media or 10% Alamar Blue/McCoy's 5a was added, and the plates were returned to the incubator to develop, followed by subsequent reading of the fluorescence or absorbance.

Data set [2] can be described thus: Conversion of MMC prodrug to MMC in cysteine solution (HPLC). Type of data set: physicochemical. As to conditions: cysteine solution pH 6.95, 37° C., after 2 h.
Data set [3] in a line: Plasma pharmacokinetics of liposomal MMC prodrugs in mice. Type of data set: in vivo. The source says:
The plasma pharmacokinetics of liposomal MMC prodrugs and free MMC were studied in mice. The liposomal MMC prodrugs are described in Table 6 below.
Animals were randomized into five (5) groups, each with 18 mice.
Three animals were sacrificed at the appropriate time points post injection. Blood samples were taken for pharmacokinetic analysis at each time point (Table 8). Approximately 0.4 mls of blood was collected, via cardiac puncture under isoflurane anesthesia, into a lithium heparin tube and placed on ice. The samples were spun to obtain the plasma, which were stored in microfuge tubes at −80° C.

Data set [4] deals with HT29 colorectal adenocarcinoma xenografts. On the procedure: The anti-tumor activity of liposomal MMC prodrugs were evaluated in female Hsd:Athymic Nude-Foxn1^nu/nu mice (approximately 25 g) implanted subcutaneous with HT29 colorectal adenocarcinoma cells or (1×10^6). Once tumors reached a median size of 200 mm^3, animals were randomized into five (5) groups, normalized by tumor volume. Animals without tumors were not included in this study. […]
According to NCI euthanasia guidelines, mice were removed from the study if they loss 20% of their initial bodyweight or became moribund or if their tumor volume exceeded 2500 mm^3 or if the tumor ulcerated. Tumor volume was measured with the TumorImager system at least twice per week and calculated with the TumorManager software, and mice were weighed twice per week.
Tumor volume was expressed as mean and median and plotted as a function of time. Animals removed from the study due to excess tumor size beyond 2500 mm^3 had values carried forward as 2500 mm^3 in the median plot only. Groups with less than 50% animals remaining were not carried forward for further tumor analysis. The following parameters were determined from tumor size and survival analysis: tumor growth inhibition (TGI), tumor growth delay (TGD), and median survival. The ratio of treated versus control tumor volume (% T/C) was calculated as: […]
Statistical significance of observed differences between growth curves were evaluated by One-Way ANOVA followed by posthoc test if significant.
In another study, mice bearing HT29 colorectal adenocarcinoma xenografts were given a single intravenous dose of liposomal MMC Prodrugs (MP-3854 or MP-3861), free MMC, or saline and the results are summarized FIGS. 7 and 8 and Table 10 below.
In another study, mice bearing HT29 colorectal adenocarcinoma xenografts were given a single intravenous dose of liposomal MMC Prodrug (W-3854) or saline and the results are summarized FIG. 10 and Table 12 below.
In a further study, mice bearing HT29 colorectal adenocarcinoma xenografts were given a single intravenous dose of liposomal MMC Prodrug (W-3854) or saline and the results are summarized FIG. 11 and Table 13 below.

The subject of a further data set is A549 NSCLC xenografts. Put plainly: In vivo anti-tumor activity, A549 xenografts. Conditions: single IV, 5 mg/kg MMC-eq. Also noted: species or system mice.
The conditions of data set [5]: in vivo; cited from earlier work.
Where [6] appears, read: 2 h drug incubation, read-out: IC50.
The mark [7] stands for this setting: 24 h drug incubation, read-out: IC50.
[8] abbreviates: 72 h drug incubation, read-out: IC50.
[9] abbreviates: Table 10, single IV, 3 mg/kg MMC-eq.
Setting [10] is: Table 10, single IV, 5 mg/kg MMC-eq.

What is called IC50 is the concentration at which inhibition is half-maximal. For the compound `CO[C@@]12[C@H](COC(N)=O)C3=C(C(=O)C(C)=C(N)C3=O)N1C[C@H]1[C@@H]2N1C(=O)OCc1ccc(SSCCN2CCCCC2)cc1` [MP-3832, 4-((2-(piperidin-1-yl)ethyl)disulfanyl)benzyl(1aS,8S,8aR,8bS)-6-amino-8-((carbamoyloxy)methyl)-8a-methoxy-5-methyl-4,7-dioxo-1a,4,7,8,8a,8b-hexahydroazirino[2′,3′:3,4]pyrrolo[1,2-α]indole-1(2H)-carboxylate], the IC50 in data set [1] (setting [6]) was determined as 4700 nM; in data set [1] (setting [7]) it was 1440 nM; in data set [1] (setting [8]), 1710 nM.
As to `CO[C@@]12[C@H](COC(N)=O)C3=C(C(=O)C(C)=C(N)C3=O)N1C[C@H]1[C@@H]2N1C(=O)OCCSSCCN1CCN(C)CC1` [MP-3854, 2-((2-(4-methylpiperazin-1-yl)ethyl)disulfanyl)ethyl (1aS,8S,8aR,8bS)-6-amino-8-((carbamoyloxy)methyl)-8a-methoxy-5-methyl-4,7-dioxo-1a,4,7,8,8a,8b-hexahydroazirino[2′,3′:3,4]pyrrolo[1,2-a]indole-1(2H)-carboxylate], the conversion of prodrug result in data set [2] is “complete conversion”. Besides, in data set [2] (HPLC 360 nm), the MMC generated was 92 Area %. In addition, the IC50 in data set [1] (Homo sapiens, HT-29, 2 h drug incubation, read-out: IC50) amounted to 41400 nM; in data set [1] (Homo sapiens, HT-29, 24 h drug incubation, read-out: IC50), 4170 nM; in data set [1] (Homo sapiens, HT-29, 72 h drug incubation, read-out: IC50), 3090 nM.
In the case of `CO[C@@]12[C@H](COC(N)=O)C3=C(C(=O)C(C)=C(N)C3=O)N1C[C@@H]1N[C@@H]12` [MMC, Mitomycin C], the IC50 came to 1830 nM in data set [1] (Homo sapiens, HT-29, 2 h); 175 nM in data set [1] (Homo sapiens, HT-29, 24 h); 109 nM in data set [1] (Homo sapiens, HT-29, 48 h); 199 nM in data set [1] (Homo sapiens, HT-29, 72 h). Further, the Half-Life result in data set [3] (Mitomycin C in plasma after high dose of MP-3854 (25 mg/kg MMC-eq)) and in data set [3] (Mitomycin C in plasma after low dose of MP-3854 (5 mg/kg MMC-eq)) was “LLD” in each case. Moreover, the “% T/C” value was 72% in data set [4] (Table 9, 2 mpk q7d x3); 13% in data set [4] (Table 9, 3 mpk q7d x3); 5% in data set [4] (Table 9, 5 mpk q7d x3); 77% in data set [4] (Table 9, 5 mpk single); 83% in data set [4] (setting [9]); 48% in data set [4] (setting [10]). Moreover, the “% T/C” value with A549 NSCLC xenografts worked out at 90%. Besides, the figures for the “Median Survival” value (in data set [4] (setting [9]); in data set [4] (setting [10]); with A549 NSCLC xenografts) were 48 days, 54 days and 76 days, respectively. Further, the “TGD (1000 mm3 Days)” value in data set [4] (setting [9]) amounted to 5.2 days; in data set [4] (setting [10]), 9.5 days; in the data set with A549 NSCLC xenografts, 32 days. Besides, the half-life alpha in data set [5] was 8 min. Moreover, in data set [5], the half-life terminal was 48 min.
For the compound `CO[C@@]12[C@H](COC(N)=O)C3=C(C(=O)C(C)=C(N)C3=O)N1C[C@H]1[C@@H]2N1C(=O)OCCSSCCN1CCCCC1` [MP-3827], the IC50 in data set [1] (setting [6]) stood at 5930 nM; in data set [1] (setting [7]), 2640 nM; in data set [1] (48 h drug incubation, read-out: IC50), 1690 nM; in data set [1] (setting [8]) it was 1290 nM.
